Assays:
Assay type in all cases: in vivo, human
[1] = Salivary acetaldehyde after alcohol with slow-release buccal tablet (Example 10); settings: buccal tablet 100 mg, alcohol 0.8 g/kg, every 20 min up to 320 min, FIG. 10
Protocol: The testees enjoyed alcohol in amounts of 0.8 g per kilo of body weight. Thereafter, the testees attached, under their upper lip, a buccal tablet that contained 100 mg of N-acetyl cysteine and that slowly released the acetyl cysteine. The salivary acetaldehyde levels were measured at intervals of 20 minutes up to 320 minutes. Throughout, the acetaldehyde contents of those using the acetyl cysteine tablets were lower than of those using the placebo.

[2] = Moistened cysteine filter in cigarette holder, salivary acetaldehyde during smoking (Example 9); settings: filter and cysteine in solid form (not moistened)
From the text: The entire filter of Marlboro Red was removed or, in some tests, a 2-3 mm piece of the original filter was left in the cigarette.
In the tests, the ready commercial cigarette holders/mouthpieces of Denicotea, www.denicotea.de, were used. In the cigarette holders/mouthpieces, plastic cylinder-shaped “containers” were used, in which the filter material was packed. The original content (intended for the removal of nicotine) of the containers was removed and replaced with the material that was used in the study. The outer dimensions of the container were: diameter 8 mm and length 35 mm.
Cellulose wadding (c. 100 mg), filter paper (Whattman),
Cysteine was dissolved in distilled water, 30-180 mg of L-Cysteine/1 ml. The manufacturer: Fluka, 30089.
[…] After this, the testees smoked the cigarettes that had been placed in the mouthpieces. During smoking, saliva samples were collected from those participating in the tests and the acetaldehyde in the saliva was analyzed by gas chromatography, Perkin-Elmer, HS40, headspace Gas Chromatograph.

[3] = Salivary acetaldehyde during smoking while sucking the Example 1 tablet (Example 6); settings: sucking tablet with 20 mg cysteine, one cigarette, after the first 5 minutes, two testees
Protocol: Two individuals tested the preparation prepared according to Example 1. The salivary acetaldehyde contents of the testees were measured before smoking and then after 5 minutes during smoking, i.e., 0 min, 5 min, 10 min, and 15 min after the testees started smoking. Each testee smoked one cigarette and, at the same time, saliva was collected from their mouths, as they sucked placebo tablets. Smoking lasted for 5 min. In another test, the testees repeated the study by sucking tablets containing 20 mg of cysteine.

[4] = Salivary acetaldehyde during smoking with L-cysteine sucking tablets, gas chromatography (Example 7); settings: for average salivary acetaldehyde content immediately after smoking: 5 min smoking
Protocol: Five smokers (of the age of 29±2.8) participated in the study, in which three cigarettes were smoked (with cleaning periods in between). While smoking each cigarette (in 5 minutes time), the voluntaries sucked tablets blindfold, containing a placebo, 1.25 mg, 2.5 mg, 5 mg, 10 mg or 20 mg of L-cysteine. The acetaldehyde in the saliva samples was analysed by gas chromatography after 0, 5, 10, 20 minutes from starting to smoke.

Structure (SMILES) | salivary acetaldehyde contents compared with placebo [1] | filtering of acetaldehyde [2] | salivary acetaldehyde content [3] | reduction of amount of acetaldehyde compared with placebo ([4]; 1.25 mg tablet) | average salivary acetaldehyde content immediately after smoking ([4]; 5 mg L-cysteine sucking tablet) [µM] | inactivation of carcinogenic acetaldehyde in saliva during smoking ([4]; 5 mg, delivered with a melting tablet) | average salivary acetaldehyde content immediately after smoking ([4]; 10 mg L-cysteine sucking tablet) [µM] | average salivary acetaldehyde content immediately after smoking ([4]; 20 mg L-cysteine sucking tablet) [µM] | removal from saliva of acetaldehyde originating from tobacco ([4]; tablets of 5 mg, 10 and 20 mg, FIG. 4)
CC(=O)N[C@@H](CS)C(=O)O [N-acetyl cysteine] | lower |  |  |  |  |  |  |  | 
N[C@@H](CS)C(=O)O [L-cysteine] |  | do not filter the acetaldehyde | non-measurable level | about two thirds | 0 | completely inactivated | 0 | 0 | all of the acetaldehyde

Reference: patent US20110033560A1, “PREPARATION AND A COMPONENT INTENDED TO BE ADDED TO A TOBACCO PRODUCT” (BIOHIT OYJ, priority 2007, published 2011)
